Literature values, collected in paper PMC13612640 (Cancer Chemotherapy and Pharmacology, 2026).

Design: method as in PMID 41165508

Plasma fraction unbound (fu): 0.046
Compound: COc1ccc(F)cc1C(=O)NCc1ccc(-c2nn([C@@H](C)C(F)(F)F)c(N)c2C(N)=O)cc1 [pirtobrutinib]
